# Laboratory results as given in patent publication US5051403A (priority 1989, dated 1991).
# Experiments:
# [1] = test system: voltage-gated calcium channels, N1E115 mouse neuroblastoma cells; assay type: cell-based
# [2] = test system: OCT receptor sites, NG-108 cells; assay type: binding, Rat glioma x mouse neuroblastoma
SMILES,ED50 (50% inhibition of calcium current) [1],concentration of specific binding sites [2]
"C[C@@H](O)[C@@H]1NC(=O)[C@H](Cc2ccc(O)cc2)NC(=O)[C@@H]2C[C@@H](O)CN2C(=O)[C@H](CC(N)=O)NC(=O)[C@@H]2CSSC[C@@H]3NC(=O)[C@H](CO)NC(=O)[C@H](CO)NC(=O)CNC(=O)[C@@H]4C[C@@H](O)CN4C(=O)[C@H](CO)NC(=O)[C@H](CCCCN)NC(=O)[C@@H](N)CSSC[C@H](NC(=O)[C@H](CSSC[C@@H](C(=O)N[C@@H](Cc4ccc(O)cc4)C(N)=O)NC(=O)[C@H](CCCNC(=N)N)NC(=O)[C@H](CCCCN)NC1=O)NC(=O)[C@H](CC(N)=O)NC(=O)[C@H](Cc1ccc(O)cc1)NC(=O)[C@H](CO)NC(=O)[C@H]([C@@H](C)O)NC(=O)[C@@H]1C[C@@H](O)CN1C(=O)[C@H](CO)NC3=O)C(=O)N[C@@H](CCCNC(=N)N)C(=O)N[C@@H](CO)C(=O)N2 [GVIA, HCysLysSer4HypGlySerSerCysSer4HypThrSerTyrAsnCysCysArgSerCysAsn4HypTyrLysArgCysTyr-NH2]",12 nM,
CSCC[C@@H]1NC(=O)[C@H](CC(C)C)NC(=O)[C@H](CCCNC(=N)N)NC(=O)[C@H](CO)NC(=O)[C@@H]2CSSC[C@@H]3NC(=O)[C@H](CO)NC(=O)CNC(=O)[C@H]([C@@H](C)O)NC(=O)[C@H](CSSC[C@H](N)C(=O)N[C@@H](CCCCN)C(=O)NCC(=O)N[C@@H](CCCCN)C(=O)NCC(=O)N[C@@H](C)C(=O)N[C@@H](CCCCN)C(=O)N2)NC(=O)[C@H](CSSC[C@@H](C(N)=O)NC(=O)[C@H](CCCCN)NC(=O)CNC(=O)[C@H](CO)NC(=O)[C@H](CCCNC(=N)N)NC3=O)NC(=O)[C@H](CC(=O)O)NC(=O)[C@H](Cc2ccc(O)cc2)NC1=O [MVIIA],,45.6
